# Key:
# [1] = test system: rabbit carotid artery thrombus; test: In vivo model of arterial thrombogenesis (carotid artery, anodal current)
# Experimental: The anti-thrombotic effect of aspirin with or without PC was then evaluated in an in vivo model of arterial thrombogenesis. According to the protocol (B24), the left carotid artery of an anesthetized rabbit was subjected to anodal current to the point where mean carotid blood flow velocity was […] control values, which corresponds to 50% occlusion of the vessel by the formed thrombus. At this point the current was discontinued and the test drugs intravenously administered as blood flow was monitored over the next 2-3 hours. It can be appreciated from FIG. 14A that carotid artery blood flow velocity dropped to zero (indicative of complete thrombus occlusion of the vessel) in <60 min in control rabbits treated with either saline or phospholipid alone (mean time until closing=40±17).
# [2] = test system: PGI2 to TXA2 ratio of carotid artery; test: PGI2 to TXA2 ratio in affected carotid arteries; type: in vivo, rabbit; conditions: 2.5 mg/kg aspirin; FIG. 14C
# Experimental: 6-keto PGF1α (a metabolite of PGI2) and TXA2 concentrations was also measured in the affected carotid arteries.
# [3] = test system: vascular (endothelial) PGI2, abdominal aorta; test: Ex vivo 6-keto PGF1α production by abdominal aorta; type: in vivo, rat; conditions: 20 mg/kg ASA intragastric, 1 hr, incubated with AA; vs control; FIG. 13B
# Experimental: FIG. 13B graphically depicts the effect of intragastric administration to rats of 20 mg/kg ASA alone or complexed with DPPC on 6KPGF1a production by abdominal aorta. After 1 hr the aorta was removed and each aorta ring was incubated at […] for 10 min in Tris-HCl buffer containing 25 mM AA. 6KPGF1a was measured by RIA. *=p<0.050 vs ASA; **=p<0.001 vs saline; n=4;
# This ex vivo approach was then used to measure vascular (endothelial) PGI2. Abdominal aorta excised one hour after drug administration was evaluated for its ability to produce 6-keto PGF1α (a stable metabolite of PGI2) by incubating it with arachidonic acid (AA, 25 mM). […] It is, therefore, possible to achieve selective inhibition of platelet cyclooxygenase and preserve vascular prostacyclin biosynthesis by the administration of PC-aspirin.
# [4] = test system: fasted Sprague Dawley rats; test: Acetaminophen liver injury, plasma AST; type: in vivo, rat; conditions: acetaminophen 800 mg/kg oral, 24 hrs, P35 SB 1:2 wt ratio, vs saline; FIG. 15
# Experimental: FIG. 15 graphically depicts data relating to liver injury in rats, as indicated by elevations in the plasma levels of the enzyme aspartate transaminase (AST), 24 hours after fasted rats are orally administrated acetaminophen (800 mg/kg) alone or in combination with P35SB at wt. ratios of 1:1 and 1:2.
# [5] = test system: fasted rats; test: Gastric lesions after intragastric aspirin followed by HCl challenge; type: in vivo, rat; conditions: aspirin 18 mg/kg, 0.6 N HCl 45 min later, ASA:lecithin oil 1:0.5, 1:1, 1:2, FIG. 1
# Experimental: One preferred embodiment of this formulation is a lecithin oil based PC-NSAID composition, which has been tested for GI toxicity. The three formulations that were tested include lecithin oils combined with aspirin, indomethacin and ibuprofen. In this study, aspirin was combined with Phosal® 35 SB, a lecithin oil, marketed by Phospholipid GmbH (Cologne, Germany), that is constituted of soy lecithin-derived components in sunflower oil. More particularly, Phosal® 35 SB lecithin oil contains about 33-40 wt. % phosphatidylcholine (PC, not including lyso-phosphatidylcholine), about 26-31 wt. % triglycerides, about 8-13 wt. % free fatty acids, and about 5-9 wt. % glycolipids. The aspirin/lecithin oil (Phosal® 35 SB) composition was intragastrically administered to fasted rats at an aspirin dose of 18 mg/kg, where the NSAID:lecithin oil weight ratio was systematically varied from 1:0.5, to 1:1, to 1:2. In addition, other groups of rats received an equivalent dose of aspirin in the absence of the lecithin oil, or an equivalent volume of saline. Forty five minutes later all animals were intragastrically challenged with 1 ml of 0.6 N HCl, and 15 min later, the animals were euthanized and their stomachs opened and the gastric lesions scored by an established method.^50-52
# [6] = test system: rats' inflamed paw; test: Pain threshold of CFA-inflamed hindpaw (Randall-Sellito technique); type: in vivo, rat; conditions: 2 h; for pain pressure threshold of inflamed paw (analgesic activity): lecithin oil 1:1
# Experimental: A previously described method was then used to evaluate the anti-inflammatory/analgesic activity of the NSAID-lecithin formulations (in comparison to the NSAIDs alone). This was accomplished be injecting 0.1 ml of Complete Freund's Adjuvant (CFA) into the left hindpaw of rats to induce an acute inflammatory response. […] The results are depicted in FIGS. 4-6.
# [7] = test system: TXB2 production in rat platelets; test: Ex vivo TXB2 production in platelets after intragastric dosing; conditions: 20 mg/kg intragastric, 30 min, aggregation induced by arachidonic acid; FIG. 13A
# Experimental: FIGS. 13A&B graphically depicts Concentration of TXB2 in rat platelets, 30 min after oral administration of saline, DPPC, ASA (20 mg/kg), or ASA complexed with DPPC. PRP was prepared and aggregation induced by AA (2 mM). TXB2 was measured by RIA. The results expressed as mean±SEM; n=3. *=p<0.050 vs ASA—Abbreviations: DPPC=dipalmitoylphosphatidylcholine; AA=arachidonic acid; pRP=platelet rich plasma; TXB=thromboxane;
# Ex vivo animal studies of the effects of phospholipid-aspirin complex (containing equimolar concentration of the two agents) on the ability to produce TXA2 and PGI2 in platelets and vascular tissue respectively were invesitaged. Rats were intragastrically administered either unmodified or DPPC-associated aspirin (20 mg/kg dose), and after 30 minutes, blood was drawn, platelet-rich plasma was prepared, and aggregation was induced by arachidonic acid.
# [8] = test system: mucosal COX activity; conditions: aspirin subcutaneously or intragastrically; cited from earlier work
# [9] = test system: SCI rats; conditions: 25 mg NSAID/kg twice a day
# From the text: In FIG. 7A, the data was plotted directly as recorded (without normalization), while in FIG. 7B, the data values for each animal are compared to its own baseline preoperative values.
# Please note that in this case, a lower number is indicative of analgesic, whereas with the Randall Sellito test higher pain pressure threshold values are indicative of analgesia.
# [10] = test system: fasted rats; test: GI bleeding (hemoglobin in GI effusate) in rats sensitised with L-NAME; type: in vivo, rat; conditions: intragastric, NSAID:lecithin 1:1, L-NAME
# Experimental: Control rats received an equivalent volume of saline. To make the rats more sensitive to the GI damaging effects of the NSAID all rats also were injected with the nitric oxide (NO) synthase inhibitor, L-NAME (20 mg/kg), three times over the 18-20 hr study period, after which the animals were euthanized and the distal 20 cm of the GI tract was flushed with 2 ml of saline, and the effusate collected for hemoglobin analysis—as an index of GI bleeding.
# [11] = test system: Tg2576 mouse; conditions: cited from earlier work
structure (smiles),measurement,setting,value
"CCCCCCCCCCCCCCCC(=O)OC[C@H](COP(=O)([O-])OCC[N+](C)(C)C)OC(=O)CCCCCCCCCCCCCCC [DPPC, dipalmitoylphosphatidylcholine]",time until blood flow velocity dropped to zero (complete occlusion),"[1]; control rabbits treated with saline or phospholipid alone, FIG. 14A",< 60 min
same,mean time until closing,"[1]; control rabbits, saline or phospholipid alone (pooled), in min",40±17
same,PGI2 to TXA2 ratio in affected carotid arteries,[2],improved slightly
same,6-keto PGF1α production by abdominal aorta,[3],no effect
"CC(=O)Nc1ccc(O)cc1 [Tylenol, acetaminophen]","plasma aspartate transaminase (AST), liver injury",[4],significantly elevated
CC(=O)Oc1ccccc1C(=O)O [aspirin],time to vessel occlusion by thrombus,"[1]; 2.5 mg/kg aspirin i.v., FIG. 14A",≤ 61 ± 15 min
same,vessel occlusion,"[1]; aspirin 5-20 mg/kg i.v., 2-3 hr experiment (data not shown)",no vessel occlusion
same,gastric lesions,[5],high number of gastric lesions
same,pain threshold of affected paw (analgesic activity),"[6]; aspirin 10 mg/kg intragastric, all weight ratios tested, FIG. 4",modest ability to increase the pain threshold
same,PGI2 to TXA2 ratio in affected carotid arteries,[2],improved slightly
same,TXB2 production in platelets,[7],reduction in TXB2
same,6-keto PGF1α production by abdominal aorta,[3],significantly inhibited
same,inhibition of mucosal COX activity,[8],> 90%
CC(C)Cc1ccc(C(C)C(=O)O)cc1 (centres unmarked) [ibuprofen],pain pressure threshold of inflamed paw (analgesic activity),"[6]; ibuprofen 25 mg/kg intragastric, FIG. 5","modest though non-significant, ability to increase the pain pressure threshold"
same,body weight gain,"[9]; 6 week period, FIG. 9",do not gain weight
same,"pain pressure threshold (hyperalgesia), Randall Sellito","[9]; 6 weeks after SCI, FIGS. 7A, 7B",hyperalgesia due to SCI was not seen
same,GI bleeding,"[10]; ibuprofen 100 mg/kg, FIG. 3",modest increase in GI bleeding
same,"amyloid-plaques, dystrophic neurites and activated microglia",[11],"reduce numbers of amyloid-plaques, dystrophic neurites and activated microglia"
COc1ccc2c(c1)c(CC(=O)O)c(C)n2C(=O)c1ccc(Cl)cc1 [indomethacin],pain pressure threshold of inflamed paw (analgesic activity),"[6]; indomethacin 4 mg/kg intragastric, FIG. 6","modest though non-significant, ability to increase the pain pressure threshold"
same,GI bleeding,"[10]; indomethacin 10 mg/kg, FIG. 2",severe increase in GI bleeding
